Patent US20150273020A1, “Hormone Normalization Therapy and Uses Therefor” (priority 2007, published 2015)

Columns and labels:
[1] = tested on: patient with diminished ovarian reserve; test: Case of a low-responder patient: FSH needed to ovulate, with and without estradiol patch and low dose hCG; format: in vivo, human
Method: To ovulate a single follicle, they required a follicle stimulating hormone level of 18 IU/L, with a typical threshold value of FSH required for a regularly cycling young and healthy woman in the range of 5 IU/L or less. This patient was also characterized by their physician as a low responder to FSH, which refers to a patient who requires high follicle stimulating hormone doses to ovulate even a single follicle. […] In the first two menstrual cycles, the patient was treated using the method as described supra, with a high dose follicle stimulating hormone (FSH) at a total dosage of FSH at about 5,000 IU across the cycle with very high threshold dosage and threshold peak follicle stimulating hormone levels like that of an AMA person with high FSH, in the first cycle and second cycle to induce follicle growth to the ovulatory stage. In the third consecutive treatment cycle, the above-described regimen was supplemented with an estradiol patch delivering 17-beta estradiol for several days until the commencement of stimulation with FSH medication. The patch was then continued daily during the period of stimulated until the evening before expected hCG injection, when it was removed. This was designed to coincide to approximate the timing of the estradiol surge. […]

[2] = tested on: follicular growth to ovulation; details: Schoemaker study; cited from earlier work
[3] = woman given daily FSH injections at a given dosage; cited from earlier work

Substance: follicle stimulating hormone
- follicle stimulating hormone level required to ovulate a single follicle ([1]; COHS cycle, severe GnRHa suppression): 18 IU/L
- total dosage of FSH across the cycle to induce follicle growth to the ovulatory stage ([1]; first and second cycles, without estradiol and hCG supplementation): about 5,000 IU
- threshold level of serum FSH for follicular growth to ovulation [2]: 7.8 IU
- time for steady-state levels of FSH to be established [3]: 4 days
